Source: patent US8889638B2, “Stimulus-triggered prodrugs” (The Regents of the University of California, priority 2010, dated 2014)
Where “and” joins values, the source holds several entries; their conditions need not be identical. Identical values can stand only once.

Assays:
[1] = test system: β-glucosidase; experiment: β-glucosidase cleavage of glucose-protected compounds (UV-Vis, HPLC, Km); assay type: biochemical, almonds; conditions: 37° C.
Experimental: Absorption spectra of compounds 1-8 were taken on a Perkin-Elmer Lambda 25 UV-visible spectrophotometer. To a 1.0 mL solution at 0.05-0.06 mM concentration in HEPES buffer (50 mM, pH 7.5) was added β-glucosidase (16 U for compounds 2, 4, and 6, and 100 U for compound 8). Spectra were monitored over time either at room temperature for compounds 1-7 or at 37° C. for compound 8.
To a 1.0 mL solution of 8 in HEPES buffer at 25 μM, 50 μM, 75 μM, 100 μM, and 200 μM was added 100 U of β-glucosidase. Spectra were monitored over 4 h at 37° C. The concentration of product formed, 1,2-HOPO-2 (7), was determined using the extinction coefficient for 7 calculated at 346 nm (4279±372 M-1 cm-1) and was plotted versus time (min). The initial velocity (ν) of each reaction was determined analyzing the linear slope of the first 50 min. The Km value was calculated from the Lineweaver-Burk plot (1/ν vs. 1/[8]) where −1/Km equals the x-intercept (FIG. 10).
Analytical HPLC was performed on a HP Series 1050 system equipped with a Vydac® C18 reverse phase column (218 TP, 250×4.6 mm, 5 μm). […] Retention times of compounds 1-8 were determined under identical HPLC conditions prior to evaluation of glucose cleavage of the protected compounds. […]

[2] = target: T1, MMP-9 (catalytic domain, human, recombinant) (Homo sapiens, UniProt P14780); experiment: MMP-9 fluorescence-based inhibition assay with and without β-glucosidase; assay type: biochemical
T1 construct: MMP-9 (catalytic domain, human, recombinant); purchased BIOMOL International
Experimental: MMP-9 (catalytic domain, human, recombinant), MMP-8 (catalytic domain, human, recombinant), and the assay kit were purchased from BIOMOL International. The assays were carried out according to the procedure provided with the kit. MMP activity was measured in 96-well plates using a Bio-Tek Flx 800 fluorescent plate reader. The ZBGs and their protected analogs were dissolved in DMSO and diluted in HEPES buffer (50 mM, pH 7.5) to a concentration of 10 mM for 1-2, 40 mM for 3-4, and 1.25 mM for 5-6. Each well contained 20 μL, of MMP-9 (0.45 U/mL), inhibitor (10 μL, of 1-6), 5 μL, of β-glucosidase (1 U/μL) when used, and buffer for a total volume of 99 μL. These were incubated for 1 h at 37° C. […] The reaction was initiated by the addition of 1 μL (400 μM) of the fluorescent substrate (Mca-Pro-Leu-Gly-Leu-Dpa-Ala-Arg-NH2 where Mca=(7-methoxycoumarin-4-yl)-acetyl and Dpa=N-3-(2,4-dinitrophenyl)-L-α-β-diaminopropionyl)) and kinetic activity was measured every minute for 30 min with excitation and emission wavelengths at 335 nm and 405 nm, respectively. Enzyme activity with inhibitor was calculated with respect to the control experiment (no inhibitor present). Measurements were performed in duplicate in two independent experiments.
For Cmpds 7 and 8, 1 mL sample in HEPES buffer at a concentration of 1 mM was incubated at 37° C. with 250 U of β-glucosidase (1 U/μL) for 4 h giving a final concentration of 0.8 mM of the inhibitor. After 4 h, a 200 μL aliquot was collected and filtered through a microcentrifuge filter. UV-Vis absorption spectroscopy was to verify that the concentration of 1,2-HOPO-2 was 0.71±0.2 mM in each of the samples using the extinction coefficient for 1,2-HOPO-2 (7) calculated at 346 nm (4,279.3±372 M-1 cm-1). Each well was made up with 20 μL of MMP-9 (0.45 U/mL), inhibitor (2 μL, for 7 and 8), and buffer for a total volume of 99 μL. These were incubated for 30 min at 37° C. For MMP-8 inhibition assays, each of the samples was diluted to 1 μM in HEPES buffer and 15 μL of each were added to 20 μL of MMP-8 (0.092 U/mL) and buffer for a total of 99 μL. The reaction was initiated by the addition of 1 μL (400 μM) of the fluorescent substrate and kinetic activity was measured every minute for 30 min with excitation and emission wavelengths at 335 nm and 405 nm, respectively. Enzyme activity with inhibitor was calculated with respect to the control experiment (no inhibitor present). A control sample was also performed, in which an aliquot of 250 U of β-glucosidase (1 U/μL) with 1 mL of HEPES buffer was incubated for 4 h at 37° C., filtered through a microcentrifuge filter, and evaluated in the MMP assay to confirm that no inhibition is observed with β-glucosidase. Measurements were performed in duplicate in two independent experiments. […]

[3] = Acid stability in 0.1 M HCl (absorption spectra); assay type: physicochemical; conditions: 0.1 M HCl over 24 h
Experimental: To examine the stability of compound 8 towards acid hydrolysis, the absorption spectra of a 0.05 mM solution of 8 in a 0.1 M aqueous solution of HCl was collected. Spectra were collected at room temperature every hour for a 24 h time period. No change in the spectra was observed (FIG. 11).

T1 sequence (P14780 107-444 limits assumed): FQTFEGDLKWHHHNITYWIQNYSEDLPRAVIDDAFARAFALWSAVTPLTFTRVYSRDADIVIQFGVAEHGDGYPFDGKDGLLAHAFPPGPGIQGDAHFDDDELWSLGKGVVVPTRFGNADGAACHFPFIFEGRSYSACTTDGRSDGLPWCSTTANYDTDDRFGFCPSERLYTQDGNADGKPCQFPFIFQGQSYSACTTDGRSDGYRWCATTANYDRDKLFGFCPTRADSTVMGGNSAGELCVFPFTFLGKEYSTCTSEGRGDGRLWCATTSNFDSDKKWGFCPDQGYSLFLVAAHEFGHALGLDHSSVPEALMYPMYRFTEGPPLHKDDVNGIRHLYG

## O=C(NCc1ccc(-c2ccccc2)cc1)c1cccc(=O)n1O[C@@H]1O[C@H](CO)[C@@H](O)[C@H](O)[C@H]1O [Compound 8, N-(Biphenyl-4-ylmethyl)-6-oxo-1-(β-D-glucopyranosyloxy)-1,6-dihydropyridine-2-carboxamide]
[1]; 100 U β-glucosidase, Lineweaver-Burk plot
  Km: ~210 µM and 210 µM
[1]; β-glucosidase
  time required for complete conversion of 8 to 7: ~4 h
[2]; 16 μM, read-out: MMP-9 activity inhibited upon activation with β-glucosidase
  inhibition at 16 µM: 73%
[2]; 1 mM for 2, 4 mM for 4, 125 μM for 6, 16 μM for 8
  inhibition of MMP-9 in the absence of β-glucosidase: very little inhibition
[3]
  cleavage under acidic conditions: not cleaved
